The values below come from patent publication US20240100050A1, “MDM2 INHIBITORS AND USES THEREOF” (PMV Pharmaceuticals, Inc., priority 2022, published 2024).

One series deals with SJSA1 tumors. The series is described as follows: Intratumoral dosing regimens of navtemadlin in SJSA1 tumors: tumor volume / % tumor inhibition. The following applies: for % TGI Day 24: compared to the vehicle. In kind it is in vivo, human. As for the experimental part: A study was conducted to compare differences between dosing regimens of navtemadlin administered to SJSA1 tumors. S.ISa-1 is a human […] cell line. Navtemadlin is an MDM2 inhibitor compound of the disclosure. […]
(§1) FIG. 2 panels A and B show the effects of intratumoral dosing regimens of navtemadlin in SJSA1 tumors, such as on tumor volume (mm 3) and % body weight change.

A short description of series [1]: % body weight change in the SJSA1 tumor dosing regimen study. In kind it is in vivo. The following applies: SJSA1 tumors. On the procedure: A study was conducted to compare differences between dosing regimens of navtemadlin administered to SJSA1 tumors. S.ISa-1 is a human […] cell line. Navtemadlin is an MDM2 inhibitor compound of the disclosure. Navtemadlin was administered intratumorally as 20 μL of 100 mg/mL navtemadlin Q3D×9, 20 μL of 100 mg/mL navtemadlin Q7D×5, 20 μL of 100 mg/mL navtemadlin Q14D×3, and 20 μL of 25 mg/mL navtemadlin QD×31.
as §1

Where [2] appears, read: intratumorally 20 μL of 25 mg/mL QD×31.
Where [3] appears, read: intratumorally 20 μL of 100 mg/mL Q3D×9.
The mark [4] stands for this setting: intratumorally 20 μL of 100 mg/mL Q7D×5.
The mark [5] stands for this setting: intratumorally 20 μL of 100 mg/mL Q14D×3.

`CC(C)[C@@H](CS(=O)(=O)C(C)C)N1C(=O)[C@@](C)(CC(=O)O)C[C@H](c2cccc(Cl)c2)[C@H]1c1ccc(Cl)cc1` [navtemadlin]: the “% TGI Day 24” value in the series on SJSA1 tumors (Q3Dx21 IT), in the series with SJSA1 tumors (Q7Dx21 IT), with SJSA1 tumors (Q14Dx21 IT) and in the series on SJSA1 tumors (QDx21 PO) was 94% throughout. The tumor volume result in the series with SJSA1 tumors (setting [2]), in the series on SJSA1 tumors (setting [3]), in the series with SJSA1 tumors (setting [4]) and in the series on SJSA1 tumors (setting [5]) was “significant tumor volume reduction” each time. The “% body weight change” value in series [1] (setting [2]), in series [1] (setting [3]), in series [1] (setting [4]) and in series [1] (setting [5]) was “not significantly affecting % body weight change” in each case.
